Data on two molecules can be found in paper PMC11935913, “Silk Nanococoons: Bio‐Nanoreactors for Enzymatic Catalytic Reactions and Applications to Alcohol Intoxication” (Small Science, 2021).

The target of this test is T1, horseradish peroxidase (HRP) (Armoracia rusticana, UniProt P00433).
T1 construct: gene PRXC1A
T1 sequence (P00433 31-338): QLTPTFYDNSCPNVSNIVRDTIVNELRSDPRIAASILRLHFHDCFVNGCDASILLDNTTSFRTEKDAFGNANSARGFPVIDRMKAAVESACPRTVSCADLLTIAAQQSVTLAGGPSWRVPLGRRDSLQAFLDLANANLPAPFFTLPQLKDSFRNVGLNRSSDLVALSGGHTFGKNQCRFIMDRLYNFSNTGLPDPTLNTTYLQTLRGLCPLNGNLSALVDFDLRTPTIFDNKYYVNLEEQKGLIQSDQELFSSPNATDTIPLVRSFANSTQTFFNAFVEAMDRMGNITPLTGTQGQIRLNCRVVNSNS
The test can be described thus: absorbance, plate reader, oxidation by H2O2. The test is classed as biochemical. The conditions noted are these: H2O2 co-substrate.

Turning to `COc1cc(-c2ccc(N)c(OC)c2)ccc1N` [o‐dianisidine], the “absorbance, plate reader, oxidation by H2O2” value (generated by GOx from glucose) is recorded as “the ODS or TMB gets oxidized by H2O2 under the catalysis of HRP”.
For the molecule `Cc1cc(-c2cc(C)c(N)c(C)c2)cc(C)c1N` [3,3′,5,5′‐tetramethylbenzidine], under “enzyme in silk fibroin nanospheres”, the “absorbance, plate reader, oxidation by H2O2” value is given as “activity recovery of enzyme HRP in SENs was monitored by the oxidation of TMB”.
